Source: PMC6199744, “Development of Chemical Proteomics for the Folateome and Analysis of the Kinetoplastid Folateome” (ACS Infectious Diseases, 2018)
Where two headings read alike, the source gives them in different places.

What was measured:
Assay type in all cases: binding
[1] = biological target: T1, HeLa cell extract proteins (Homo sapiens, UniProt Q92688); details: HeLa; protein ANP32B (ISOFORM 1 OF ACIDIC LEUCINE-RICH NUCLEAR PHOSPHOPROTEIN 32 FAMILY MEMBER B.)
T1 construct: endogenous in cells; host or cells: HeLa cell extract

[2] = biological target: T2, HeLa cell extract proteins (Homo sapiens, UniProt O60684); details: protein KPNA6; HeLa
T2 construct: endogenous in cells; host or cells: HeLa cell extract

[3] = biological target: T3, HeLa cell extract proteins (Homo sapiens, UniProt P11498)
T3 construct: endogenous in cells; host or cells: HeLa cell extract
T3 sequence (P11498 21-1178): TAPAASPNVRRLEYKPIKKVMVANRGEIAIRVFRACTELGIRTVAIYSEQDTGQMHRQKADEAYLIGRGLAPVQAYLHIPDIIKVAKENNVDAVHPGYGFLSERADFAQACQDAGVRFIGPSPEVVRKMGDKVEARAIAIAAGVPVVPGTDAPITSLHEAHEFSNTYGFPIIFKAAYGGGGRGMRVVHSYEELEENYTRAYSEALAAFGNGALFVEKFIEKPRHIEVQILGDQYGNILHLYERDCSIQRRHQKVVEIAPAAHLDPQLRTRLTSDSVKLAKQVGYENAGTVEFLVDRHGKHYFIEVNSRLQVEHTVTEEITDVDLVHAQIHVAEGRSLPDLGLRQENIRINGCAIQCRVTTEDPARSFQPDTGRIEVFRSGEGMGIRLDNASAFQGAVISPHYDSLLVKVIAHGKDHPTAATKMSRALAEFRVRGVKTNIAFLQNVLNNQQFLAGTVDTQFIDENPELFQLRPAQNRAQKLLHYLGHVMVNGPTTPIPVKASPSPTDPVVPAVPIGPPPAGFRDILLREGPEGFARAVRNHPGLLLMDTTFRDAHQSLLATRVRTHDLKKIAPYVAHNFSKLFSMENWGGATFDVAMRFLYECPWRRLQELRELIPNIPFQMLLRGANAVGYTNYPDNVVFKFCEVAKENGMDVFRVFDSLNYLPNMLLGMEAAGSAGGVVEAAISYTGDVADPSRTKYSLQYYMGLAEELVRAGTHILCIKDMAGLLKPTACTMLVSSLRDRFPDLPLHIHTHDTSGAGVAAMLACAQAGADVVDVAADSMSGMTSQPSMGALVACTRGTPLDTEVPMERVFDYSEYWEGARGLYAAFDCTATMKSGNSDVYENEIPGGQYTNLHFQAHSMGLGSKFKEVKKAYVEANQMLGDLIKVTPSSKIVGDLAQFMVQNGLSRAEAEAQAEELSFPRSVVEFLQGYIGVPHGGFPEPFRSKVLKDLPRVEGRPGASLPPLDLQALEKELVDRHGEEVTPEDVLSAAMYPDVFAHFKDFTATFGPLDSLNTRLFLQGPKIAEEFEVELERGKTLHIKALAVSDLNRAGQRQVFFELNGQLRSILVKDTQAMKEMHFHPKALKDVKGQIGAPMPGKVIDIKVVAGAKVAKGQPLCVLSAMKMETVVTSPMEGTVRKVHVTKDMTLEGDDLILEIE

[4] = biological target: T4, HeLa cell extract proteins (Homo sapiens, UniProt Q13616)
T4 construct: endogenous in cells; host or cells: HeLa cell extract

[5] = biological target: T5, HeLa cell extract proteins (Homo sapiens, UniProt P49736)
T5 construct: endogenous in cells; host or cells: HeLa cell extract

[6] = biological target: T6, HeLa cell extract proteins (Homo sapiens, UniProt O43819)
T6 construct: endogenous in cells; host or cells: HeLa cell extract
T6 sequence (O43819 42-266): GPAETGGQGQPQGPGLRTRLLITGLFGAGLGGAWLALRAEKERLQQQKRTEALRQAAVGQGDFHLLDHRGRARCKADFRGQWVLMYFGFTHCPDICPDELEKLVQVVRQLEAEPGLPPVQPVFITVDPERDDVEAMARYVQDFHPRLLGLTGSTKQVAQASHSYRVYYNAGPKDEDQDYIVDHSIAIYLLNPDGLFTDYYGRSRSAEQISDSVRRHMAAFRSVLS

[7] = biological target: T7, HeLa cell extract proteins (Homo sapiens, UniProt P05109)
T7 construct: endogenous in cells; host or cells: HeLa cell extract
T7 sequence (P05109 1-93): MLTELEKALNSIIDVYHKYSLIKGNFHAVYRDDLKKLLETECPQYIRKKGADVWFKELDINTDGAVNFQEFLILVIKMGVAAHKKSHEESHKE

[8] = biological target: T8, HeLa cell extract proteins (Homo sapiens, UniProt Q96S59)
T8 construct: endogenous in cells; host or cells: HeLa cell extract

[9] = biological target: T9, HeLa cell extract proteins (Homo sapiens, UniProt P52294)
T9 construct: endogenous in cells; host or cells: HeLa cell extract

[10] = biological target: T10, HeLa cell extract proteins (Homo sapiens, UniProt Q93099)
T10 construct: endogenous in cells; host or cells: HeLa cell extract
T10 sequence (Q93099 1-445): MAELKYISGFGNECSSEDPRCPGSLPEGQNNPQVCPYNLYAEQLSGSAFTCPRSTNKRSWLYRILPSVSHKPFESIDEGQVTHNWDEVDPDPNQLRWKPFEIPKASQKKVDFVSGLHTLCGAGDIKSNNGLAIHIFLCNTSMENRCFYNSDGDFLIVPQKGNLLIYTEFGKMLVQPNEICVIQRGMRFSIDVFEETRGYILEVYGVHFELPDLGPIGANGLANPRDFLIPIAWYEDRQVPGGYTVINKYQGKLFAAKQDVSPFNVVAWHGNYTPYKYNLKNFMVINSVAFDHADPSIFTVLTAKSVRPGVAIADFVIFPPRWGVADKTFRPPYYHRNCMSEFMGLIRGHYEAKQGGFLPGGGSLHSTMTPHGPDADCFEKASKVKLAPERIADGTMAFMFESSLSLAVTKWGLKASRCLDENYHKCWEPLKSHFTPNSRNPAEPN

T8 sequence (Q96S59 whole entry): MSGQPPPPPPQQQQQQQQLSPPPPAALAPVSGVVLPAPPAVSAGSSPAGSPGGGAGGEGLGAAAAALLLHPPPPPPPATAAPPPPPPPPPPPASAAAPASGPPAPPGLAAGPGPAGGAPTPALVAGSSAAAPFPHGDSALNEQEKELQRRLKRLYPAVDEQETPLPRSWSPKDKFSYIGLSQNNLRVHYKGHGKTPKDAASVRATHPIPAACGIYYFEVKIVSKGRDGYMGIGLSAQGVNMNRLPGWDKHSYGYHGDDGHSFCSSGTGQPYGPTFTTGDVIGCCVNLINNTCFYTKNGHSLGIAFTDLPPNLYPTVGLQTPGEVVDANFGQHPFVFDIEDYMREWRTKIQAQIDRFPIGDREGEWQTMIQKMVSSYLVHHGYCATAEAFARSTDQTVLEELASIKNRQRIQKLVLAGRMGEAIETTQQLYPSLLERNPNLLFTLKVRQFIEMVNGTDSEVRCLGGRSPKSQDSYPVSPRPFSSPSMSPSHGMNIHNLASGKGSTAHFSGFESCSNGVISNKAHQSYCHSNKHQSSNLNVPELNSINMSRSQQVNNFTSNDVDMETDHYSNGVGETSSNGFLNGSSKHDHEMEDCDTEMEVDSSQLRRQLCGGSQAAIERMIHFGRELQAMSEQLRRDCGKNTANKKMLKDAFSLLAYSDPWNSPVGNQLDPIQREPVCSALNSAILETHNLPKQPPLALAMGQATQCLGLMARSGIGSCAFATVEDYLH
T5 sequence (P49736 whole entry): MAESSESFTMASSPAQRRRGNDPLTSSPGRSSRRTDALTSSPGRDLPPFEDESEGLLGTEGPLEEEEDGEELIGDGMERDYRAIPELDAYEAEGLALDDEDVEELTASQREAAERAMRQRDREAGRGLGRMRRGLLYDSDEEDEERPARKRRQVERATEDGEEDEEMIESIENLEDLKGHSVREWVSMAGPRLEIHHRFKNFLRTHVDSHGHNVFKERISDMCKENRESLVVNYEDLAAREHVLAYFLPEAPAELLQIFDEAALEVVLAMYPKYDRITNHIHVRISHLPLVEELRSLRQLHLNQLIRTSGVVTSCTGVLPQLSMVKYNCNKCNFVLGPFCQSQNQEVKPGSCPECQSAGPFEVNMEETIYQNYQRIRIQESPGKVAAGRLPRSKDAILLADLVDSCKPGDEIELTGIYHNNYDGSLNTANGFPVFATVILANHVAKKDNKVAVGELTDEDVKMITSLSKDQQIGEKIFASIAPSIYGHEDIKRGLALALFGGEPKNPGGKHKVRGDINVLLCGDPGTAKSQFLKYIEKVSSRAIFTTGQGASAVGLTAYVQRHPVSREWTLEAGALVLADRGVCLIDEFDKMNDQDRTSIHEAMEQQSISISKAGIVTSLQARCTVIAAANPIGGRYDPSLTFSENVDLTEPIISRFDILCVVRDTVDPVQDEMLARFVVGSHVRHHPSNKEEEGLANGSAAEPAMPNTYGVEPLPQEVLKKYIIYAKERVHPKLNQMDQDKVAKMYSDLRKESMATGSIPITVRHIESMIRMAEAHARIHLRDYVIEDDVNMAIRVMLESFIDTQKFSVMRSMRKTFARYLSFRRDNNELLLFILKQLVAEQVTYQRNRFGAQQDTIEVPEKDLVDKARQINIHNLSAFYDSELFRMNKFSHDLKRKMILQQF
T9 sequence (P52294 whole entry): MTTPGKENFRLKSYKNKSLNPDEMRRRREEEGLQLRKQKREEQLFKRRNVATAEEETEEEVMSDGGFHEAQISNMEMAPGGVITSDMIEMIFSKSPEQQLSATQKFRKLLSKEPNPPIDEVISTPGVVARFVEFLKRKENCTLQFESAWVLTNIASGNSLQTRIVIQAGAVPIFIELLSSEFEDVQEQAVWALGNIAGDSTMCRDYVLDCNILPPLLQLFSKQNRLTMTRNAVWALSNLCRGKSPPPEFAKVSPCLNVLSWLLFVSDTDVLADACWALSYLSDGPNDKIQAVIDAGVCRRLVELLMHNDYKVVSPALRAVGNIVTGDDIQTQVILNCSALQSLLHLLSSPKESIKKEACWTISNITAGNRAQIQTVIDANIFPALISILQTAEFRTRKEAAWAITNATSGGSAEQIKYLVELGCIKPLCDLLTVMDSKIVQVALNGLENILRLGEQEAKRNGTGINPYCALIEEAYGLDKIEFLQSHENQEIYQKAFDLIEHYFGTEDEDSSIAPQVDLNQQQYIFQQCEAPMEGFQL
T1 sequence (Q92688 whole entry, canonical isoform): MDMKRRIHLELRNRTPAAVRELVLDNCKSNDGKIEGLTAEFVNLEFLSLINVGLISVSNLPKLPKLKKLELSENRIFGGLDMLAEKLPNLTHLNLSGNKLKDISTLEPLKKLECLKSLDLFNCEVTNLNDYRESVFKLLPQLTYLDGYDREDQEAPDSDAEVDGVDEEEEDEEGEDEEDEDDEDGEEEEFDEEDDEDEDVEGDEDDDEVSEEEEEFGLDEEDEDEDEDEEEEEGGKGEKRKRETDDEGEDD
T4 sequence (Q13616 whole entry): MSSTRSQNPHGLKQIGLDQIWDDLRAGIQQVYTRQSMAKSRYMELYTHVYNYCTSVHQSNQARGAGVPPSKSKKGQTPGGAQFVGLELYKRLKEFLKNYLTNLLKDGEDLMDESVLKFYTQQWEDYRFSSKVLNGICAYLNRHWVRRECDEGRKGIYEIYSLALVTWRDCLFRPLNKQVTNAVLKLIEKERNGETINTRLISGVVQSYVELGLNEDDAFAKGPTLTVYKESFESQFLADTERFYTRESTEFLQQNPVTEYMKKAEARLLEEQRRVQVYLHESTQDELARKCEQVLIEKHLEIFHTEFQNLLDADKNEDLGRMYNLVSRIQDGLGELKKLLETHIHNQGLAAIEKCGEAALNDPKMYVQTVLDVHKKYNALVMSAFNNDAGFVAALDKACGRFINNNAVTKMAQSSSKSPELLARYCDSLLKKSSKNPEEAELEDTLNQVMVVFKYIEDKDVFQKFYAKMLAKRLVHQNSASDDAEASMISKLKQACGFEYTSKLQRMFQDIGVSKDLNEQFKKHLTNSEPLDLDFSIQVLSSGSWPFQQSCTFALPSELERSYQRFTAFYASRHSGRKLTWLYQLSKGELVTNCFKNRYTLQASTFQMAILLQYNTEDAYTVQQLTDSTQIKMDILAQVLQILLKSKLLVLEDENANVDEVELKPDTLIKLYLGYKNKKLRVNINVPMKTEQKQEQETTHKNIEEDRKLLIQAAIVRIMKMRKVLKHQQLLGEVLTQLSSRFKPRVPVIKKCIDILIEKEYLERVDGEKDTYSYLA

Nc1nc2cccc(-c3ccccc3)c2n1Cc1ccc(Cl)c(Cl)c1 [compound 3]
fold changes relative to vehicle control [1]: 4.13 fold
fold changes relative to vehicle control [2]: 1.15

NCCOCCOCC(=O)Nc1nc2ncc(CNc3ccc(C(=O)NC(CCC(=O)O)C(=O)O)cc3)nc2c(=O)[nH]1 (centres unmarked) [compound 6]
fold changes relative to vehicle control ([3]; protein PC, HeLa): 0.97
fold changes relative to vehicle control ([4]; HeLa, protein CUL1): 1.22
fold changes relative to vehicle control ([5]; HeLa, protein MCM2): 1.18
fold changes relative to vehicle control ([6]; HeLa, protein SCO2): 1.02
fold changes relative to vehicle control ([7]; protein S100A8, HeLa): 0.4
fold changes relative to vehicle control ([8]; protein RANBP9, HeLa): 0.96
fold changes relative to vehicle control ([9]; HeLa, protein KPNA1): 0.98
fold changes relative to vehicle control ([10]; HeLa, protein HGD): 1.01

Nc1nc2[nH]cc(CCc3ccc(C(=O)N[C@@H](CCC(=O)O)C(=O)O)cc3)c2c(=O)[nH]1 [PTX, pemetrexed]
fold changes relative to vehicle control [3]: 0.69
fold changes relative to vehicle control [4]: 1.03
fold changes relative to vehicle control [5]: 1.05
fold changes relative to vehicle control [6]: 0.95
fold changes relative to vehicle control [7]: 0.34
fold changes relative to vehicle control [8]: 1.05
fold changes relative to vehicle control [9]: 0.87
fold changes relative to vehicle control [10]: 1.01

Nc1nc2c(c(=O)[nH]1)N(C=O)C(CNc1ccc(C(=O)N[C@@H](CCC(=O)O)C(=O)O)cc1)CN2 (some centres unmarked) [LEU, leucovorin]
fold changes relative to vehicle control ([3]; protein PC, HeLa): 0.8
fold changes relative to vehicle control ([4]; HeLa, protein CUL1): 0.98
fold changes relative to vehicle control ([5]; HeLa, protein MCM2): 1.06
fold changes relative to vehicle control ([6]; HeLa, protein SCO2): 0.95
fold changes relative to vehicle control ([7]; protein S100A8, HeLa): 0.28
fold changes relative to vehicle control ([8]; protein RANBP9, HeLa): 1.03
fold changes relative to vehicle control ([9]; HeLa, protein KPNA1): 0.9
fold changes relative to vehicle control ([10]; HeLa, protein HGD): 0.87

CCCCCCOc1ccc(Cc2cnc(N)nc2N)cc1 [compound 1]
fold changes relative to vehicle control [1]: 1.88 fold
fold changes relative to vehicle control [2]: 1.16

NCCCNc1ccc(C(=O)NC(CCC(=O)O)C(=O)O)cc1 (centres unmarked) [compound 7]
fold changes relative to vehicle control ([3]; protein PC, HeLa): 1.1
fold changes relative to vehicle control ([4]; HeLa, protein CUL1): 1.02
fold changes relative to vehicle control ([5]; HeLa, protein MCM2): 0.88
fold changes relative to vehicle control ([6]; HeLa, protein SCO2): 1.03
fold changes relative to vehicle control ([7]; protein S100A8, HeLa): 0.26
fold changes relative to vehicle control ([8]; protein RANBP9, HeLa): 1.65
fold changes relative to vehicle control ([9]; HeLa, protein KPNA1): 0.93
fold changes relative to vehicle control ([10]; HeLa, protein HGD): 0.8

CCCCCCOc1cccc(Cc2cnc(N)nc2N)c1 [compound 2]
fold changes relative to vehicle control [1]: 3.3 fold
fold changes relative to vehicle control [2]: 1.34
